8 cell lines from the supplement of paper PMC10307832 can be followed below.

Holding throughout (assay): relative viability (nuclei count vs DMSO), 5 days (fraction); higher = more cells survive
Compound in assay [1]: C1/C(=C\C2=CC=CS2)/C(=O)/C(=C/C3=CC=CS3)/C1 + Cc1cc(Nc2cc(N3CCN(C)CC3)nc(Sc3ccc(NC(=O)C4CC4)cc3)n2)n[nH]1 [Tozasertib] (partner 0.1 µM)
The method in brief:
(§1)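 Dosing by pin tool came one day after lung cancer cell lines were seeded in 1536-well plates, using either one drug or a fixed anchor-drug dose plus five library-drug doses (not always all listed) in √10 steps. After 5 days, nuclei were counted on 4× images. Relative viability is treated-well nuclei count divided by vehicle-well nuclei count, and values are medians of duplicate plates.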

Compound in assay [2]: C1=CC(=CC=C1C2=CC(=C(S2)NC(=O)N)C(=O)N)F [TPCA-1] + CC(=O)Nc1cccc(-n2c(=O)n(C3CC3)c(=O)c3c(Nc4ccc(I)cc4F)n(C)c(=O)c(C)c32)c1 [Trametinib] (partner 0.02 µM)
A digest of the protocol:
as §1

Compound in assay [3]: C1=CC(=CC=C1C2=CC(=C(S2)NC(=O)N)C(=O)N)F [TPCA-1] + Nc1nc2[nH]cc(CCc3ccc(C(=O)N[C@@H](CCC(=O)O)C(=O)O)cc3)c2c(=O)[nH]1 [Pemetrexed] (partner 0.2 µM)
A digest of the protocol:
as §1

Compound in assay [4]: C[C@]12O[C@H](C[C@]1(O)CO)n1c3ccccc3c3c4c(c5c6ccccc6n2c5c31)CNC4=O [Lestaurtinib] + Cc1nc(Nc2ncc(C(=O)Nc3c(C)cccc3Cl)s2)cc(N2CCN(CCO)CC2)n1 [Dasatinib] (partner 0.075 µM)
A digest of the protocol: as §1

Turning to 201T, the relative viability in assay [1] (first compound 0.2 µM) worked out at 0.959; in assay [1] (first compound 0.6325 µM) it was 0.968; in assay [1] (first compound 2 µM) it was 1; in assay [1] (first compound 6.325 µM) it was 0.897; in assay [1] (first compound 20 µM), 0.911; in assay [2] (first compound 0.04 µM), 0.717. Also, the relative viability came to 0.729 in assay [2] (first compound 0.1265 µM); 0.691 in assay [2] (first compound 0.4 µM); 0.733 in assay [2] (first compound 1.265 µM); 0.751 in assay [2] (first compound 4 µM); 0.363 in assay [3] (first compound 0.04 µM); 0.298 in assay [3] (first compound 0.1265 µM). Further, the relative viability in assay [3] (first compound 0.4 µM) is 0.337; in assay [3] (first compound 1.265 µM), 0.282; in assay [3] (first compound 4 µM), 0.304; in assay [4] (first compound 0.005 µM), 0.598; in assay [4] (first compound 0.01581 µM), 0.546; in assay [4] (first compound 0.05 µM), 0.552. In addition, the relative viability in assay [4] (first compound 0.1581 µM) came to 0.583; in assay [4] (first compound 0.5 µM), 0.4.

Take A-427: the relative viability in assay [1] (first compound 0.2 µM) is 0.185; in assay [1] (first compound 0.6325 µM), 0.22; in assay [1] (first compound 2 µM), 0.248; in assay [1] (first compound 6.325 µM), 0.176; in assay [1] (first compound 20 µM), 0.216; in assay [2] (first compound 0.04 µM) it was 0.771. The relative viability in assay [2] (first compound 0.1265 µM) was found to be 0.652; in assay [2] (first compound 0.4 µM), 0.875; in assay [2] (first compound 1.265 µM), 0.68; in assay [2] (first compound 4 µM), 0.718; in assay [3] (first compound 0.04 µM), 1.01; in assay [3] (first compound 0.1265 µM) it was 0.918. Also, the relative viability was determined as 1.11 in assay [3] (first compound 0.4 µM); 1.05 in assay [3] (first compound 1.265 µM); 0.388 in assay [3] (first compound 4 µM); 0.846 in assay [4] (first compound 0.005 µM); 0.771 in assay [4] (first compound 0.01581 µM); 0.454 in assay [4] (first compound 0.05 µM). The relative viability in assay [4] (first compound 0.1581 µM) worked out at 0.24; in assay [4] (first compound 0.5 µM) it was 0.116.

As to ABC-1, the relative viability came to 0.182 in assay [1] (first compound 0.2 µM); 0.17 in assay [1] (first compound 0.6325 µM); 0.195 in assay [1] (first compound 2 µM); 0.195 in assay [1] (first compound 6.325 µM); 0.218 in assay [1] (first compound 20 µM); 0.547 in assay [4] (first compound 0.005 µM). Moreover, the relative viability in assay [4] (first compound 0.01581 µM) worked out at 0.648; in assay [4] (first compound 0.05 µM), 0.482; in assay [4] (first compound 0.1581 µM), 0.451; in assay [4] (first compound 0.5 µM), 0.218.

For the cell line BEN, the relative viability in assay [1] (first compound 0.2 µM) turned out to be 0.474; in assay [1] (first compound 0.6325 µM) it was 0.506; in assay [1] (first compound 2 µM) it was 0.506; in assay [1] (first compound 6.325 µM), 0.52; in assay [1] (first compound 20 µM), 0.6; in assay [2] (first compound 0.04 µM), 1.04. The relative viability stood at 0.736 in assay [2] (first compound 0.1265 µM); 1.18 in assay [2] (first compound 0.4 µM); 1.39 in assay [2] (first compound 1.265 µM); 1.04 in assay [2] (first compound 4 µM); 0.701 in assay [3] (first compound 0.04 µM); 0.661 in assay [3] (first compound 0.1265 µM). For the same cell line, the relative viability in assay [3] (first compound 0.4 µM) is 0.739; in assay [3] (first compound 1.265 µM), 0.99; in assay [3] (first compound 4 µM), 0.513; in assay [4] (first compound 0.005 µM), 0.3; in assay [4] (first compound 0.01581 µM), 0.322; in assay [4] (first compound 0.05 µM) it was 0.265. In addition, the results for the relative viability in assay [4] (first compound 0.1581 µM) and in assay [4] (first compound 0.5 µM) were 0.313 and 0.184, respectively.

Take CAL-12T: the relative viability amounted to 0.334 in assay [1] (first compound 0.2 µM); 0.32 in assay [1] (first compound 0.6325 µM); 0.356 in assay [1] (first compound 2 µM); 0.256 in assay [1] (first compound 6.325 µM); 0.309 in assay [1] (first compound 20 µM); 0.326 in assay [2] (first compound 0.04 µM). Also, the relative viability in assay [2] (first compound 0.1265 µM) worked out at 0.331; in assay [2] (first compound 0.4 µM) it was 0.345; in assay [2] (first compound 1.265 µM), 0.358; in assay [2] (first compound 4 µM) it was 0.254; in assay [3] (first compound 0.04 µM), 1.12; in assay [3] (first compound 0.1265 µM), 0.968. Moreover, the relative viability was found to be 1.17 in assay [3] (first compound 0.4 µM); 1.09 in assay [3] (first compound 1.265 µM); 0.828 in assay [3] (first compound 4 µM); 0.447 in assay [4] (first compound 0.005 µM); 0.413 in assay [4] (first compound 0.01581 µM); 0.306 in assay [4] (first compound 0.05 µM). Moreover, the relative viability in assay [4] (first compound 0.1581 µM) worked out at 0.307; in assay [4] (first compound 0.5 µM), 0.153.

COR-L23: the relative viability stood at 0.223 in assay [1] (first compound 0.2 µM); 0.203 in assay [1] (first compound 0.6325 µM); 0.197 in assay [1] (first compound 2 µM); 0.185 in assay [1] (first compound 6.325 µM); 0.193 in assay [1] (first compound 20 µM); 0.715 in assay [2] (first compound 0.04 µM). Further, the relative viability in assay [2] (first compound 0.1265 µM) is 0.512; in assay [2] (first compound 0.4 µM), 0.713; in assay [2] (first compound 1.265 µM), 0.547; in assay [2] (first compound 4 µM), 0.33; in assay [3] (first compound 0.04 µM) it was 0.206; in assay [3] (first compound 0.1265 µM), 0.207. Moreover, the relative viability in assay [3] (first compound 0.4 µM) came to 0.184; in assay [3] (first compound 1.265 µM), 0.193; in assay [3] (first compound 4 µM), 0.196; in assay [4] (first compound 0.005 µM), 0.539; in assay [4] (first compound 0.01581 µM) it was 0.699; in assay [4] (first compound 0.05 µM) it was 0.296. For the same cell line, the relative viability in assay [4] (first compound 0.1581 µM) is 0.455; in assay [4] (first compound 0.5 µM), 0.121.

Take COR-L 105: the relative viability in assay [1] (first compound 0.2 µM) was 0.337; in assay [1] (first compound 0.6325 µM), 0.33; in assay [1] (first compound 2 µM), 0.316; in assay [1] (first compound 20 µM) it was 0.407; in assay [2] (first compound 0.04 µM), 0.542; in assay [2] (first compound 0.1265 µM) it was 0.321. The relative viability in assay [2] (first compound 0.4 µM) was 0.422; in assay [2] (first compound 1.265 µM), 0.505; in assay [2] (first compound 4 µM) it was 0.407; in assay [3] (first compound 0.04 µM) it was 1.02; in assay [3] (first compound 0.1265 µM), 0.931; in assay [3] (first compound 0.4 µM) it was 1.23. In addition, the relative viability in assay [3] (first compound 1.265 µM) was found to be 1.03; in assay [3] (first compound 4 µM), 0.777; in assay [4] (first compound 0.005 µM), 0.32; in assay [4] (first compound 0.01581 µM), 0.32; in assay [4] (first compound 0.05 µM), 0.245; in assay [4] (first compound 0.1581 µM), 0.258. Also, in assay [4] (first compound 0.5 µM), the relative viability is 0.145.

For the cell line ChaGo-K-1, the relative viability turned out to be 0.241 in assay [1] (first compound 0.2 µM); 0.235 in assay [1] (first compound 0.6325 µM); 0.259 in assay [1] (first compound 2 µM); 0.212 in assay [1] (first compound 6.325 µM); 0.197 in assay [1] (first compound 20 µM); 0.895 in assay [2] (first compound 0.04 µM). Besides, the relative viability in assay [2] (first compound 0.1265 µM) was determined as 0.715; in assay [2] (first compound 0.4 µM), 0.876; in assay [2] (first compound 1.265 µM), 0.822; in assay [2] (first compound 4 µM), 0.676; in assay [3] (first compound 0.04 µM), 0.273; in assay [3] (first compound 0.1265 µM) it was 0.23. Also, the relative viability was 0.274 in assay [3] (first compound 0.4 µM); 0.261 in assay [3] (first compound 1.265 µM); 0.211 in assay [3] (first compound 4 µM); 0.654 in assay [4] (first compound 0.005 µM); 0.601 in assay [4] (first compound 0.01581 µM); 0.552 in assay [4] (first compound 0.05 µM). The relative viability in assay [4] (first compound 0.1581 µM) came to 0.547; in assay [4] (first compound 0.5 µM) it was 0.292.
